Article PMC2229628 (The Journal of Endocrinology, 2008)

Target: T1, human GnRH receptor (hGnRHR) (Homo sapiens, UniProt P30968)
T1 sequence (P30968 1-328): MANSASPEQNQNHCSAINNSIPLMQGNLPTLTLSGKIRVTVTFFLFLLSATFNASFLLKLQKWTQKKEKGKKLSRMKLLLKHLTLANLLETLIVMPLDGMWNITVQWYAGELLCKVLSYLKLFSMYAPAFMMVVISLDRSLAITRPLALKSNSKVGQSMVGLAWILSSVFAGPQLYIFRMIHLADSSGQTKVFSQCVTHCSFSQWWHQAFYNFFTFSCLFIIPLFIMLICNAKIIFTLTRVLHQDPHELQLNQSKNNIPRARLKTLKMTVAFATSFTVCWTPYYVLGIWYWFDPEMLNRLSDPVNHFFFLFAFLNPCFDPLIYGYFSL
Assay type: cell-based

EC50: 3–5×10^−8 M
Structure (SMILES): Cc1cc(C)cc(-c2[nH]c3ccc(C(C)(C)C(=O)N4CC5CCC4CC5)cc3c2[C@H](C)CNCCc2ccncc2)c1 [IN3, (2S)-2-[5-[2-(2-axabicyclo[2.2.2]oct-2-yl)-1,1-dimethy-2-oxoethyl]-2-(3,5-dimethylphenyl)-1H-indol-3-yl]-N-(2-pyridin-4-ylethyl)propan-1-amine]
